By ED50 is commonly meant the midpoint of the dose-response relation. As usually defined, the Ki is the equilibrium dissociation constant of an inhibitor or competing ligand from its target. Lower therefore signals higher affinity.

The species entered for one test is Cavia porcellus. Put plainly: In vitro activity on K+ induced R-alpha methyl histamine mediated inhibition of norepinephrine release from guinea pig cardiac synaptosomes. It is filed as functional.
The species entered for another test is Rattus norvegicus. The test can be described thus: Effective dose was evaluated for blood brain penetration using ex vivo binding techniques. Type of test: functional.
Test [1] concerns the target T1, Histamine H3 receptor (Rattus norvegicus, UniProt Q9QYN8). The test can be described thus: Inhibition of [3H]- N-alpha-methylhistamine from histamine H3 receptor.
Test [2] deals with T1, Histamine H3 receptor. Put plainly: Antagonistic activity was evaluated against histamine H3 receptor using [3H]- N-alpha-methylhistamine as radioligand in experiment 2. Type of test: functional.

T1 sequence (Q9QYN8 whole entry): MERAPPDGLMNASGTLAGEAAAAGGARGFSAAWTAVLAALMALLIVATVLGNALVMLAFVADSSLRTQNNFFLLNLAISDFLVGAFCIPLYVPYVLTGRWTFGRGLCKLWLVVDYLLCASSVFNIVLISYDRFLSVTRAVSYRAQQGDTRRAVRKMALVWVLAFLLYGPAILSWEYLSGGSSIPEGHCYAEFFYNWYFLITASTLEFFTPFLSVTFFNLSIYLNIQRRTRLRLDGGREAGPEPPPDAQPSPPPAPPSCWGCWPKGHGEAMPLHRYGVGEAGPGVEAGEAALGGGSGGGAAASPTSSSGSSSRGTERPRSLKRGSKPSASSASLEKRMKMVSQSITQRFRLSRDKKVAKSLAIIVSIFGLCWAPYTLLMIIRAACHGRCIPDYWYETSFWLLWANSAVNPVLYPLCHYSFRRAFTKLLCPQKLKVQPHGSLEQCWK

In turn, `C(#CCCC1CCCC1)CCc1c[nH]cn1` showed a Release in the test listed under Cavia porcellus of 111%. Also, the ED50 in the test filed under Rattus norvegicus amounted to 0.48 mg/kg.

Compound `Cn1cncc1CCN` had a Release in the test listed under Cavia porcellus of 106%. Further, the Ki at Histamine H3 receptor [1] turned out to be 1 nM.

As to `COc1ccc(C/C(=N\O)C(=O)NCCc2c[nH]cn2)cc1Br` [VERONGAMINE], the affinity on Histamine H3 receptor [1] corresponds to a Ki of 0.5 nM.

Regarding `S=C(NC1CCCCC1)N1CCC(c2cnc[nH]2)CC1` [THIOPERAMIDE], the Ki at Histamine H3 receptor [2] is 1.54 nM.

In the case of `C(#CCCC1CCCCC1)CCc1c[nH]cn1`, the Release in the test listed under Cavia porcellus stood at 122%. In the test filed under Rattus norvegicus, it took a dose of 0.43 mg/kg to reach the 50% effect level (ED50).

These data come from ChEMBL document CHEMBL1130983, “New acetylene based histamine H3 receptor antagonists derived from the marine natural product verongamine” (Bioorg Med Chem Lett, 1998).
